Several values for one entry are separate records, joined by “and”; a condition that tells them apart may be missing. Equal values may be shown once. Toxic doses and inconclusive results are not listed. The calls were made as follows: active = survival T/C of 150% or more; inactive = T/C below 125% in these data.
Test system: BDF1 mice, P388 leukemia ip, median survival T/C
Test: NCI In Vivo Anticancer Drug Screen. Data for tumor model P388 Leukemia (intraperitoneal) in B6D2F1 (BDF1) mice
Settings: endpoint: median survival time, higher = longer survival
Outline: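 Antitumour effect was judged in vivo: survival in drug-treated mice, normalised to that of vehicle-dosed controls, gives the reported T/C.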

[1] = dose: 50.0 mg/kg/injection, schedule: Q01DX009 (ip), vehicle: saline with Tween-80
[2] = dose: 100.0 mg/kg/injection, schedule: Q01DX009 (ip), vehicle: saline with Tween-80
[3] = dose: 200.0 mg/kg/injection, schedule: Q01DX009 (ip), vehicle: saline with Tween-80
[4] = dose: 100.0 mg/kg/injection, schedule: Q04DX003 (ip), vehicle: saline with Tween-80
[5] = dose: 200.0 mg/kg/injection, schedule: Q04DX003 (ip), vehicle: saline with Tween-80
[6] = dose: 400.0 mg/kg/injection, schedule: Q04DX003 (ip), vehicle: saline with Tween-80

Measured: T/C

CC1(C)O[C@]2(C)CC[C@@H]1[C@@H](O)[C@@H]2N1CCCCC1
inactive: dose: 50.0 mg/kg/injection, schedule: Q01DX005 (ip), vehicle: saline with Tween-80 109 % of control | dose: 100.0 mg/kg/injection, schedule: Q01DX005 (ip), vehicle: saline with Tween-80 111 % of control | dose: 200.0 mg/kg/injection, schedule: Q01DX005 (ip), vehicle: saline with Tween-80 97 % of control

Cc1cc(C)c2nc3c(c(C(O)C4CCCCN4)c2c1)CC/C3=C\c1ccc(Cl)cc1 (stereo not drawn)
inactive: [1] 114 % of control | [2] 100 % of control | [3] 116 % of control

OC12CCCCC1Cc1cc3c(cc1O2)CC1CCCCC1(O)O3 (stereo not drawn)
inactive: [1] 100 % of control | [2] 93 % of control | [3] 96 % of control

COc1ccc2c3c(ccc2c1)C1=C(C(=O)O)CC(=O)C1(C)CC3 (stereo not drawn)
inactive: dose: 100.0 mg/kg/injection, schedule: Q04DX003 (sc), vehicle: steriod suspending solution 108 % of control | dose: 200.0 mg/kg/injection, schedule: Q04DX003 (sc), vehicle: steriod suspending solution 100 % of control | dose: 400.0 mg/kg/injection, schedule: Q04DX003 (sc), vehicle: steriod suspending solution 95 % of control

CN=NNc1ccccc1
inactive: dose: 66.0 mg/kg/injection, schedule: Q04DX003 (ip), vehicle: saline with Tween-80 120 % of control | dose: 75.0 mg/kg/injection, schedule: Q01DX009 (ip), vehicle: other 118 % of control | dose: 75.0 mg/kg/injection, schedule: Q04DX003 (ip), vehicle: saline with Tween-80 120 % of control | dose: 150.0 mg/kg/injection, schedule: Q04DX003 (ip), vehicle: saline with Tween-80 100 % of control | dose: 225.0 mg/kg/injection, schedule: Q04DX003 (ip), vehicle: saline with Tween-80 95 % of control | dose: 300.0 mg/kg/injection, schedule: Q04DX003 (ip), vehicle: saline with Tween-80 100 % of control

c1ccc(-c2nc3ccccc3nc2-c2ccc(-c3ccc(-c4nc5ccccc5nc4-c4ccccc4)cc3)cc2)cc1
inactive: [1] 88 % of control | [3] 88 % of control

c1csc(CSc2ncnc3nc[nH]c23)c1
inactive: [2] 100 % of control | [3] 100 % of control

OCCNCCN=Cc1ccccc1O
inactive: dose: 50.0 mg/kg/injection, schedule: Q01DX001 (ip), vehicle: saline sonified 87 % of control | dose: 100.0 mg/kg/injection, schedule: Q01DX001 (ip), vehicle: saline sonified 91 % of control | dose: 200.0 mg/kg/injection, schedule: Q01DX001 (ip), vehicle: saline sonified 100 % of control

OCC(F)(F)C(F)(F)C(F)(F)C(F)F
inactive: dose: 100.0 mg/kg/injection, schedule: Q01DX009 (ip), vehicle: Klucel (hydroxypropylcellulose) (HPC) 95 % of control | dose: 100.0 mg/kg/injection, schedule: Q04DX003 (ip), vehicle: Klucel (hydroxypropylcellulose) (HPC) 104 % of control | dose: 200.0 mg/kg/injection, schedule: Q01DX009 (ip), vehicle: Klucel (hydroxypropylcellulose) (HPC) 105 % of control | dose: 200.0 mg/kg/injection, schedule: Q04DX003 (ip), vehicle: Klucel (hydroxypropylcellulose) (HPC) 100 % of control | dose: 400.0 mg/kg/injection, schedule: Q01DX009 (ip), vehicle: Klucel (hydroxypropylcellulose) (HPC) 115 % of control | dose: 400.0 mg/kg/injection, schedule: Q04DX003 (ip), vehicle: Klucel (hydroxypropylcellulose) (HPC) 90 % of control

Nc1n[nH]c(N)n1.[Ni]
inactive: [2] 100 % of control | [4] 91 % of control | [3] 95 % of control and 115 % of control | [5] 87 % of control | dose: 400.0 mg/kg/injection, schedule: Q01DX009 (ip), vehicle: saline with Tween-80 109 % of control | [6] 100 % of control

CCOC(=O)c1c(OCCCc2ccc(F)cc2)cc2ccc3ccccc3c2c1OCCCc1ccc(F)cc1
inactive: [4] 86 % of control | [5] 87 % of control | [6] 103 % of control

COc1cc(NC(N)=O)cc(OC)c1OC
inactive: dose: 18.75 mg/kg/injection, schedule: Q04DX003 (ip), vehicle: saline sonified 100 % of control | dose: 37.5 mg/kg/injection, schedule: Q04DX003 (ip), vehicle: saline sonified 86 % of control | dose: 75.0 mg/kg/injection, schedule: Q04DX003 (ip), vehicle: saline sonified 100 % of control
